Reference: US6376670B1, “Quinoline-indole antimicrobial agents, uses and compositions related thereto” (Sepracor Inc., priority 1997, dated 2002)

Experiments:
Type in all cases: cell-based
[1] = system: ciprofloxacin-resistant Staphylococcus aureus (CRSA); assay: Determination of MIC values (BHI broth, 96 well microtiter plate); conditions: MRSA, cells marked [CRSA], overnight 37° C., read-out: MIC [CRSA] (printed in MRSA column)
How it was run: (§1)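 Organisms are grown in BHI at 37° C (about 7% CO2) to a 0.5 McFarland standard, then inoculated at 10^5 to 10^6 cells/mL into BHI holding twofold compound dilutions (final 25 down to 0.39 µg/mL, DMSO-diluted). After overnight incubation, MIC is the lowest concentration lacking growth.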

Streptococcus pneumoniae = assay: as above; conditions: Streptococcus pneumoniae; S. pneu; BHI broth, overnight 37° C.; read-out: MIC S. pneu
How it was run: as §1

[2] = system: vancomycin-resistant Enterococcus spp. (VRE); assay: as above; conditions: Enterococcus, VRE, VREF; BHI broth, overnight 37° C.; read-out: MIC VREF
How it was run: as §1

[3] = system: methicillin-resistant Staphylococcus aureus (MRSA); assay: as above; conditions: Staphylococcus aureus, MRSA; read-out: MIC MRSA
How it was run: as §1

VISA-5827 = assay: MIC against VISA strain; conditions: Staphylococcus aureus
Experimental: (§2) Stock solutions of compounds are prepared with a concentration of 10 mg/mL. These solutions are then diluted 1:4 to give a concentration of 2.5 mg/mL. The compounds are then serially diluted 1:2 for 6 iterations. The concentrations made for each compound are 2.5, 1.25, 0.625, 0.3125, 0.156, 0.078, and 0.039 mg/mL. A control sample (no compound) is run along with each compound tested. All dilutions are made in DMSO.
(§3) All wells of a 96 well microtiter plate are filled with 100 μL of BHI (Brain-Heart Infusion) broth. Columns on the plate are labeled 1-12, and rows are labeled A-H. Each column of wells is used to test one series of diluted compounds. Into each well of 100 μL of BHI broth, 1 μL of diluted compound is placed for a 1:100 dilution. This makes the final concentration of each drug series 25, 12.5, 6.25, 3.125, 1.56, 0.78, 0.39, and 0 μg/mL.
(§4) Test Organism: A sterile 15 mL screw cap tube is filled wth 3 mL of BHI broth. Next, 2-3 colonies of test organism are inoculated into the tube. The tube is then incubated at 37° C. in a CO2 (approx. 7%) atmosphere jar. The organisms are allowed to grow to the density of a 0.5 McFarland standard (10^8 cells/mL). The organism is then inoculated into each well of the microtiter plate containing the diluted compounds to be tested for MIC. The inoculum is 1 μL in volume and represents 10^5 to 10^6 cells/mL.
(§5) After inoculation the plates are covered and incubated at 37° C. and approx. 7-10% CO2 atmosphere overnight (about 16 hours). The plates are then observed for growth, the well with the lowest concentration of drug and no observable growth represents the well determining the MIC.

VISA-5836 = assay: MIC against VISA strain; conditions: Staphylococcus aureus
Experimental: as §2, §3, §4, §5

S. aureus (ATCC 25923) = assay: MIC against S. aureus strain; conditions: Staphylococcus aureus, ATCC25923
Experimental: as §2, §3, §4, §5

S. aureus (ATCC 33592) = assay: MIC against S. aureus strain; conditions: Staphylococcus aureus, ATCC33592
Experimental: as §2, §3, §4, §5

S. aureus (ATCC 29213) = assay: MIC against S. aureus strain; conditions: Staphylococcus aureus, ATCC29213
Experimental: as §2, §3, §4, §5

S. aureus (ATCC 33591) = assay: MIC against S. aureus strain; conditions: Staphylococcus aureus, ATCC33591
Experimental: as §2, §3, §4, §5

S. aureus 8325-4 [4] = assay: Lytic response (culture turbidity 600 nm) in MH broth; conditions: added at 5×, 10×, and 20×MIC to early log phase cultures
Experimental: (§6) Activities of the quinoline-indoles and comparator agents were determined against MSSA (n=32), MRSA (n=31) and VISA (n=7). Susceptibility testing on MH agar was performed using an inoculum of 10^6 c.f.u. Bactericidal, lytic and PAEs were determined on S. aureus 8325-4 in MH broth. Samples were removed for viable numbers on MH agar (for bactericidal response) and culture turbidity (600 nm) (for lytic response). PAEs were determined by a broth dilution method following exposure of bacteria to drugs at 5×MIC for 60 min.
The effects of the quinoline-indoles, and ciprofloxacin and rifampin (controls) on the integrity of S. aureus 8325-4 were examined following addition at 5×, 10×, and 20×MIC to early log phase cultures.
The lysis experiments were performed using classical “time kill-curve” methodology. See V. Lorian, Antibiotics in Laboratory Medicine, 4th ed., Chapter 2; Williams & Wilkins, Baltimore, 1996 (ISBN 0-683-05169-5). Bacteria (e.g., S. aureus) are exposed in liquid culture (early log phase approx […]) to multiples (typically 2×, 5×, 10×, and 20×) of the single cell agar MIC. Drug-free controls are also included. […] The samples are diluted in fresh drug-free medium and aliquots from a range of dilutions spread onto drug-free agar plates and those giving 30-300 colony forming units/plate are counted for quantification of survivors versus time of drug exposure. […]

S. aureus 8325-4 [5] = assay: Post-antibiotic effect (PAE), broth dilution method; conditions: exposed to 5×MIC for 60 min before washout; PAE = T-C
Experimental: as §6
The PAE, defined as the lag period before the target organism resumes a normal growth rate after exposure to an inhibitor, was determined for D, A, and rifampin (control) against S. aureus 8325-4. Organisms were exposed to 5×MIC for 60 min. before washout and PAE calculated as T-C, wherein T=time required for treated cells to increase 1 log CFU/mL; and C=time required for non-treated control to increase 1 log CFU/ml. after washout with fresh medium. PAEs for D and A were both 40 min and for the rifampin control PAE was 180 mins. The rifampin PAE is in agreement with literature values.

SMILES	MIC [1] [µg/mL]	MIC [3] [µg/mL]	MIC (VISA-5827) [µg/mL]	MIC (VISA-5836) [µg/mL]	other results
NCCNC(=O)c1cc(-c2c[nH]c3ccc(Br)cc23)nc2cc(Cl)c(C#CCN3CCCCC3)cc12 [compound 5]		< 7	< 7	< 7	
CN(CC[N+](C)(C)C)C(=O)c1cc(-c2c[nH]c3ccc(Br)cc23)nc2cc(Cl)ccc12 [compound 10]		< 7	< 7	< 7	MIC (S. aureus (ATCC 25923)): < 7 µg/mL; MIC (S. aureus (ATCC 33592)): < 7 µg/mL; MIC (S. aureus (ATCC 29213)): < 7 µg/mL; MIC (S. aureus (ATCC 33591)): < 7 µg/mL
OCc1cc(-c2c[nH]c3ccc(Br)cc23)nc2cc(F)ccc12 [compound 7]		< 7	< 7	< 7	
COc1ccc2nc(-c3c[nH]c4ccc(Cl)cc34)ccc2c1 [compound 6]		< 7	< 7	< 7	
CO[C@H]1/C=C/O[C@@]2(C)Oc3c(C)c(O)c4c(O)c(c(/C=N/N5CCN(C)CC5)c(O)c4c3C2=O)NC(=O)/C(C)=C\C=C\[C@H](C)[C@H](O)[C@@H](C)[C@@H](O)[C@@H](C)[C@H](OC(C)=O)[C@@H]1C [rifampin]					bactericidal mechanism of action (lytic versus non-lytic) (S. aureus 8325-4 [4]): non-lytic; post-antibiotic effect (PAE) (S. aureus 8325-4 [5]): 180 min
OCc1cc(-c2c[nH]c3ccc(Br)cc23)nc2cc(F)ccc12 [compound 6]					MIC (S. aureus (ATCC 25923)): < 7 µg/mL; MIC (S. aureus (ATCC 33592)): < 7 µg/mL; MIC (S. aureus (ATCC 29213)): < 7 µg/mL; MIC (S. aureus (ATCC 33591)): < 7 µg/mL
NCC(O)CNC(=O)c1cc(-c2c[nH]c3ccc(Br)cc23)nc2cc(Cl)cc(Cl)c12 (stereo not drawn) [Entry 11]					MIC (S. aureus (ATCC 25923)): < 7 µg/mL; MIC (S. aureus (ATCC 33592)): < 7 µg/mL; MIC (S. aureus (ATCC 29213)): < 7 µg/mL; MIC (S. aureus (ATCC 33591)): < 7 µg/mL
O=C(O)c1cn(C2CC2)c2cc(N3CCNCC3)c(F)cc2c1=O [ciprofloxacin]					bactericidal mechanism of action (lytic versus non-lytic) (S. aureus 8325-4 [4]): non-lytic
Cn1cc(-c2cc(C(=O)NCCN)c3ccc(I)cc3n2)c2cc(Br)ccc21 [Example 329]	< 7				MIC (Streptococcus pneumoniae): < 7 µg/mL; MIC [2]: < 7 µg/mL
COc1ccc(NC(=O)c2cc(-c3c[nH]c4ccc(Br)cc34)nc3ccc(C#CCN4CCCCC4)cc23)cc1 [compound 3]		< 7	< 7	< 7	
COC(=O)c1cc(-c2c[nH]c3ccc(Br)cc23)nc2cc(F)ccc12 [compound 4]		< 7	< 7	< 7	
NCc1ccc(CNC(=O)c2cc(-c3c[nH]c4ccc(Br)cc34)nc3ccc(C#CCN4CCCCC4)cc23)cc1 [compound 2]		< 7	< 7	< 7	
NCCNC(=O)c1cc(-c2c[nH]c3ccc(Br)cc23)nc2ccc(Cl)cc12 [Example 286]	< 7				MIC (Streptococcus pneumoniae): < 7 µg/mL; MIC [2]: < 7 µg/mL
NCCNC(=O)c1cc(-c2c[nH]c3ccc(Br)cc23)nc2cc(I)ccc12 [Example 296]	< 7				MIC (Streptococcus pneumoniae): < 7 µg/mL; MIC [2]: < 7 µg/mL
COC(=O)c1cc(-c2c[nH]c3ccc(Br)cc23)nc2cc(F)ccc12 [compound 3]					MIC (S. aureus (ATCC 25923)): < 7 µg/mL; MIC (S. aureus (ATCC 33592)): < 7 µg/mL; MIC (S. aureus (ATCC 29213)): < 7 µg/mL; MIC (S. aureus (ATCC 33591)): < 7 µg/mL
NCc1cc(-c2c[nH]c3ccc(Br)cc23)nc2cc(Cl)ccc12 [compound 7]					MIC (S. aureus (ATCC 25923)): < 7 µg/mL; MIC (S. aureus (ATCC 33592)): < 7 µg/mL; MIC (S. aureus (ATCC 29213)): < 7 µg/mL; MIC (S. aureus (ATCC 33591)): < 7 µg/mL

Second part, led by results:

MIC [1] [µg/mL]	MIC [3] [µg/mL]	MIC (VISA-5827) [µg/mL]	MIC (VISA-5836) [µg/mL]	SMILES	other results
< 7				NCc1ccc(CNC(=O)c2cc(-c3c[nH]c4ccc(Br)cc34)nc3ccccc23)cc1 [Example 284]	
< 7				Cn1cc(-c2cc(C(=O)NCc3ccc(CN)cc3)c3ccc(F)cc3n2)c2cc(Br)ccc21 [Example 323]	MIC (Streptococcus pneumoniae): < 7 µg/mL; MIC [2]: < 25 µg/mL
< 7				NCCNC(=O)c1cc(-c2c[nH]c3ccc(Br)cc23)nc2c(I)cccc12 [Example 320]	MIC (Streptococcus pneumoniae): < 7 µg/mL; MIC [2]: < 7 µg/mL
	< 7	< 7	< 7	NCc1ccc(CNC(=O)c2cc(-c3c[nH]c4ccc(Br)cc34)nc3ccccc23)cc1 [compound 1]	
	< 7	< 7	< 7	NCc1cc(-c2c[nH]c3ccc(Br)cc23)nc2cc(Cl)ccc12 [compound 8]	
	< 7	< 7	< 7	Brc1ccc2[nH]cc(-c3nc4ccc(C#CCN5CCCCC5)cc4c4c3CCO4)c2c1 [compound 9]	
> 25				CCOC(=O)n1cc(-c2cc(C(=O)NCc3cccc(CN)c3)c3cc(I)ccc3n2)c2cc(Br)ccc21 [Example 324]	MIC (Streptococcus pneumoniae): > 25 µg/mL; MIC [2]: > 25 µg/mL
